Assay results from patent US20210085699A1, “COMBINATION THERAPIES FOR TREATING CANCERS” (priority 2018, published 2021).

Experiments:
[1] = test system: spontaneously arising lymphomas; experiment: 2DG in drinking water, spontaneous lymphomas of SJL.CD8a−/− mice; assay type: in vivo, mouse
Text: To test the extent to which inhibition of glycolysis by 2DG alleviated these spontaneously arising lymphomas, a cohort of SJL.CD8a−/− female mice were aged to […] of age and were monitored for signs of lymphoma development. Visible growth was most evident in cervical lymph nodes and in some cases in spleens (indicated by arrows, FIG. 1A). Once tumors were sufficiently large to palpate, mice were placed on water with 6 g/L of dissolved 2DG provided ad libitum and monitored weekly for tumor reduction. […] Photographs of the tumors were taken weekly to document disease regression, and the time points, in weeks, at which the tumors visibly shrank or, later, reemerged, were recorded.
Female SJL.CD8a−/− mice were obtained from the Jackson Laboratory. Mice were aged and checked weekly for splenic or lymphatic tumors. […] Tumors were monitored and photographed weekly for signs of disease regression or progression.
SJL.CD8a−/− female mice were aged and monitored for signs of tumor development weekly after reaching 6 months of age. Tumors were found on mice in between 7 to 12 months of age. Once tumors had reached a clearly visible size, the mice were given water with 6 g/L of dissolved 2DG provided ad libitum. This concentration of 2DG in the water supplied the mice with a daily dose of approximately 960 mg/kg of 2DG. Mice were monitored weekly to determine changes in tumor mass. Photographs of the tumors were taken weekly to gauge whether the tumor was shrinking, expanding, or maintaining their size and to provide an estimate of the overall health of the mice. Treatments lasted for 11 weeks or until the tumors returned and mice became too sick to continue in the study. The treatment of one mouse was carried out to week 16 to determine what, if any, side effects would occur with prolonged 2DG exposure. […] Dates on which tumor shrinkage was observed, as well as dates on which tumor reemergence was observed, were recorded.

thymic lymphomas = experiment: 2DG I.P. in Trp53−/− mouse model of thymic lymphoma; assay type: in vivo
Protocol: Next, a more homogeneous and acute spontaneously arising lymphoma was tested. In addition, the extent to which 2DG could affect a purely T-cell lymphoma was tested. To meet all of these criteria, a classic mouse model of T-cell cancer, the p53-deficient mouse (31) was used. […] To test the effect of 2DG on these thymic lymphomas, […].

TM00921 = experiment: PDX lung carcinoma TM00921 xenografted in NSG mice, 2DG vs glucose; assay type: in vivo, human; details: 200 μL of 600 mM 2DG I.P. three times weekly, 4 weeks, glycolysis-dependent PDX
Text: (§1) The effects of 2DG in human lung carcinoma PDX (patient-derived xenograft) models were eventuated. While it is understood that 2DG primarily affects glycolysis, studies have shown that 2DG can interfere with other systems, such as the cell cycle, independently of its effects on metabolism (8, 32, 33). Changes in the cell cycle would affect the proliferation of cancer cells, and would ultimately influence tumor growth. To test whether 2DG affects glycolysis independently of proliferation, two PDX human lung carcinomas (TM00244 and TM00921) with similar growth kinetics (FIG. 2A) but differing in the use of glycolytic pathways (Table 1) were tested.
(§2) Tumors from these two carcinomas were xenografted into immunodeficient NOD.Scid.IL2R gamma null (NSG™) mice, and, after tumors of a measurable size (>50 mm^3) were observed, mice of each model were treated with 200 μL of either 600 mM 2DG or glucose three times weekly via I.P. injection.
(§3) Patient-derived xenograft (PDX) tumors were obtained from the JAX PDX Resource. Tumor fragments were minced separately and xenografted subcutaneously in an NSG mouse to establish P1. Upon growth of the tumor fragment, the tumor was harvested, minced, and xenografted in multiple mice to establish P2 mice. All experiments were conducted on P2 or higher mice that arose from engraftment from one of multiple tumor fragments.

TM00244 = experiment: PDX lung carcinoma TM00244 xenografted in NSG mice, 2DG vs glucose; assay type: in vivo, human; details: 200 μL of 600 mM 2DG I.P. three times weekly, 4 weeks, glycolysis-independent PDX
Text: as §1, §2, §3

MEC1 cells [2] = experiment: MEC1 xenograft in NRG mice, tumor burden by human CD19+ cells (flow cytometry); assay type: in vivo
Protocol: (§4) To test that hypothesis, the two cell lines were tested for 2DG sensitivity in vivo: immunodeficient NOD.Cg-Rag1^tm1MomIl2rg^tm1Wjl/SzJ (NRG™) mice were xenografted with either MEC1 or CCRF-SB cells, and the mice were then treated with 200 μL of 600 mM 2DG or glucose I.P. three times per week for two weeks. Both MEC1 and CCRF-SB cells migrate to the spleen and bone marrow, and since these mice […] CD19+ B-cells, the tumor burden can be measured terminally in these organs by anti-human CD19 staining via flow cytometry after euthanasia at the end of the treatment period.
Because DIDS was effective in reducing numbers of MEC1 B-cells ex vivo, its effectiveness was tested in vivo. […] MEC1 cells were xenografted into immunodeficient NRG™ mice for two weeks, and mice were then treated either with DIDS at 50 mg/kg or with a 0.1 M potassium bicarbonate/PBS vehicle, once per week for an additional two weeks. NRG™ mice were used because they were deficient in CD19 cells, allowing quantification of MEC1 B-cells by staining spleen cells for human CD19, as the spleen is a homing organ for MEC1 B-cells, all of which are positive for CD19.
Mice were treated I.P. three times weekly for two weeks. 1) mice were dosed I.P. with 10 mg/kg DIDS, a fifth of the dose required to elicit an effect in vivo (FIG. 4D); 2) mice were treated I.P. with 220 mg/kg of 2DG or glucose; a third of the dose of 2DG required for an effect (FIG. 3C); 3) mice were treated with both DIDS and 2DG, at the same doses used in the first two groups; 4) as a positive control, mice were treated with fludarabine, a compound frequently used to treat CLL, at 35 mg/kg, a dose commonly used to elicit an effect; and 5) as a negative control, mice were treated with vehicle consisting of glucose in PBS (41). Following the 2-week treatment period, bone marrow and spleens were assessed for tumor burden, by determining the percentages of human CD19-positive cells via flow cytometry (FIG. 5C).
(§5) Human cancer cell lines were xenografted into NRG mice in the following way: Cells grown in flasks were given fresh media the night before xenograftment and seeded at 10^6 cells per mL. The next day, the cells were washed twice with DPBS without calcium or magnesium and resuspended to 1-2×10^8 cells per mL of DPBS at room temperature and immediately injected via tail vein at 100 μL per mouse. The cells were given 7-10 days to fully xenograft, after which tumor load in the blood was assessed via flow cytometry (FACSCaliber II) for human CD19+ cells (Antibody cat no. 555413, BD Parmingen). Mice with similar tumor loads were assigned to different treatment groups to decrease bias and ensure more even tumor load across treatments. Mice were treated as described in the Results section for two weeks unless otherwise indicated. Upon euthanasia, the spleen and the bone marrow were harvested and stained for human CD19, and the cells were measured by flow cytometry on the FACSCaliber II. Analysis of the flow data was done by Flowjo version 8.8.7 (BD Pharmingen).
Xenografts were done as follows: NOD. Rag1−/− IL-2rg−/− (NRG) mice obtained from the Jackson Laboratory were xenografted for one to two weeks with Non Hogdkin's Leukemia CCRFSB, Chronic lymphocytic leukemia MEC1 cells or MEC1 cells carrying the luciferase gene (MEC1_LUC). Mice were then randomly assigned to treatment or vehicle cohort, and treated for two weeks.

CCRF-SB cells = experiment: CCRF-SB xenograft in NRG mice, tumor burden by human CD19+ cells; assay type: in vivo; details: 200 μL of 600 mM 2DG I.P. three times per week for two weeks, vs glucose
Protocol: as §4
as §5, with “Mice with similar tumor loads were assigned to different treatment groups to decrease bias and ensure more even tumor load across treatments. Mice were treated as described in the Results section for two weeks unless otherwise indicated.” left out, “Analysis of the flow data was done by Flowjo version 8.8.7 (BD Pharmingen).” left out

MEC1 cells [3] = experiment: Ex vivo growth/survival of MEC1 cells; assay type: cell-based, human
[4] = test system: AID knock-out MEC1 (AKO) cells; experiment: Ex vivo growth of AID knock-out MEC1 (AKO) cells; assay type: cell-based, human; details: DIDS vs vehicle
Protocol: (§6) Theoretically, this would result in a truncated, non-functional AID, which was termed AID knock-out MEC1 (AKO) cells. To test the dependence of DIDS on AID, AKO cells were treated with DIDS and compared their growth with that of parental MEC1 cells. […] To test whether AID sufficiency was required for DIDS efficacy in vivo, AKO and parental cells were xenografted in NRG™ mice, and mice were treated with 50 mg/kg of DIDS for two weeks. […] Thus, the therapeutic effect of DIDS in MEC1 xenografts depended on AID.
AID knock out (AKO) MEC1 cell lines were developed by targeting Exon 2 of AID with the following guide RNAs: CTTGATGAACCGGAGGAAG (SEQ ID NO: 1), GTCCGCTGGGCTAAGGGTC (SEQ ID NO: 2), GTGCTACATCCTTTTCAC (SEQ ID NO: 3). These guides were cloned into the Cas9-EGFP vector, pX330 (Addgene, Cat. no. 66582). These vectors were nucleofected into MEC1 cells using Amaxa Cell Line Nucleofector Kit V using program X-001, and according to manufacturer's instructions (Lonza, Cat. no. VACA-1003). Nucleofected cells were sorted for GFP positivity and cloned by limited dilution to generate AKO cell lines. Two independent AKO cell lines (14-1 and 14-3) were confirmed for AID nullizygosity using both genomic and transcript PCRs.

[5] = test system: AID knock-out MEC1 (AKO) cells; experiment: AKO cell xenograft in NRG mice treated with DIDS; assay type: in vivo, human; details: DIDS 50 mg/kg for two weeks
Protocol: as §6
as §5, with “Mice with similar tumor loads were assigned to different treatment groups to decrease bias and ensure more even tumor load across treatments. Mice were treated as described in the Results section for two weeks unless otherwise indicated.” left out, “Analysis of the flow data was done by Flowjo version 8.8.7 (BD Pharmingen).” left out

[6] = test system: splenocytes, live white blood cells (CD45+ Ter119-PI−); experiment: In vivo DIDS treatment of AID-null mice followed by ex vivo ionizing radiation of splenocytes; parameters: species or system mouse
Protocol: Whether DIDS could block repair of AID-independent double-strand breaks (frank or single-strand staggered double-strand breaks) in vivo was determined. A common way to generate double-strand breaks is via ionizing radiation (1, 38, 39). For this, AID-null mice were treated with different concentrations of DIDS (0, 5, or 10 mg/kg) for eight hours, and then harvested splenocytes and treated them with different doses of IR (0, 1, 5, 10 Gy). Eighteen hours after IR, the numbers of live white blood cells (CD45+ Ter119-PI−) were measured by flow cytometry.

[7] = test system: AID-positive neoplastic cell lines; details: tissue culture; reference (17); cited from earlier work
[8] = test system: human CLL cells from patients; details: patient cells ex vivo; reference (17); cited from earlier work
[9] = one mouse, 2DG 6 g/L in water carried out to week 16
[10] = 200 μL of 600 mM 2DG I.P. three times per week for two weeks, vs glucose

OCC1O[C@H](O)C[C@@H](O)[C@@H]1O (mixture of isomers) [2DG, 2-deoxy-D-glucose]
adverse side effects by gross observation (weight loss, lethargy, lack of grooming) ([1]; 2DG 6 g/L in drinking water, at any time during treatment): no adverse side effects of this treatment were observed | time within which tumors returned ([1]; 2DG 6 g/L in drinking water, despite continuation of treatment): 5-11 weeks | mice of the six responders in which tumors returned ([1]; 2DG 6 g/L in drinking water, treatment continued): four | treatment time at which tumor regression was evident ([1]; 2DG 6 g/L in drinking water, N=7): two to three | appearance of greatly enlarged spleen (representative mouse) ([1]; FIG. 1A legend, 2DG 6 g/L in drinking water): returned to normal appearance after two weeks of treatment | fraction of mice with tumor resurgence ([1]; FIG. 1B legend, after 5-11 weeks of 2DG treatment, N=7): approximately ¾ | adverse effects with prolonged 2DG exposure [1, 9]: no adverse effects were noted | tumor return under prolonged treatment [1, 9]: This tumor never returned | duration of inactivity upon injection (thymic lymphomas; 2DG 670 mg/kg I.P.): 10 to 60 min | protection from developing neoplasms (survival curve) (thymic lymphomas; 2DG 670 mg/kg I.P. three times weekly from 14 weeks of age for 10 weeks, vs glucose): significantly protected from developing neoplasms | weight gain (thymic lymphomas; 2DG 670 mg/kg I.P. three times weekly, vs glucose-treated mice): lower weight gain compared to glucose-treated mice, although the difference did not achieve significance | tumor volume (TM00921): significantly smaller tumor volume | tumor size (TM00244): no difference in tumor size | tumor burden (% hCD19+) in bone marrow (MEC1 cells [2]; 2DG alone 220 mg/kg I.P. three times weekly for two weeks): elicited as much effect as the combination treatment | tumor burden (human CD19+ cells) in bone marrow (MEC1 cells [2]; [10]): significant reductions in numbers | tumor burden (human CD19+ cells) in spleen, sensitivity to 2DG (MEC1 cells [2]; [10]): those in the spleen did not | tumor burden (human CD19+ cells) in spleens or bone marrow (CCRF-SB cells): no significant response to 2DG | effect on MEC1 cell numbers (MEC1 cells [3]; 2DG 0.2 mM alone, 48 hours): does not have an effect on its own

O=S(=O)(O)c1cc(N=C=S)ccc1/C=C/c1ccc(N=C=S)cc1S(=O)(=O)O [DIDS, 4,4′-Diisothiocyano-2,2′-stilbenedisulfonic acid]
mice showing significant (p=0.001) reduction in number of MEC1 cells in the spleen (MEC1 cells [2]; DIDS 50 mg/kg once per week for two weeks, vs vehicle): 10/11 | tumor burden in vivo (luciferase imaging, flow cytometry of bone marrow and spleen) (MEC1 cells [2]; FIG. 10 legend, MEC1 or MEC1 LUC, DIDS 50 mg/kg for two weeks): a high dose of DIDS is required to reduce tumor burden in vivo | cytotoxic effect on MEC1 B-cells (MEC1 cells [3]; DIDS 0.05 mM, 5 days, 2×10^5 cells): Cytotoxic effects of DIDS on MEC1 B-cells were seen as early as 5 days | cytotoxic effect on MEC1 B-cells (MEC1 cells [3]; DIDS 0.1 and 0.2 mM, after 5 days): significant effect was observed | cell numbers (MEC1 cells [3]; DIDS alone, titrated, day 2): reduction of cell numbers as the concentration of DIDS was increased | growth rate of AKO cells [4]: grew at a similar rate regardless of whether the cells were treated with vehicle or DIDS | spleen weights, AKO vs parental MEC1 [5]: AKO cells were more resistant to DIDS | tumor burden by percentages of human CD19 cells, AKO vs parental MEC1 [5]: AKO cells were more resistant to DIDS | survival of cells after IR ([6]; DIDS 0, 5 or 10 mg/kg for eight hours in AID-null mice, IR 0, 1, 5, 10 Gy ex vivo, eighteen hours after IR): in the presence of DIDS, the effect is significantly greater | cell ablation at 10 Gy, normalized to 0 mg/Kg DIDS ([6]; IR 10 Gy, DIDS 5 or 10 mg/kg): even a tenth of the dose of DIDS can synergistically enhance the severity of cell ablation | targeting of AID-positive neoplastic cell lines [7]: could specifically target AID-positive neoplastic cell lines in tissue culture | targeting of AID-positive vs AID-negative human CLL cells [8]: targeted AID-positive, but not AID-negative, human CLL cells
